Measurements reported in paper PMC6600542 (Molecules, 2019).

Key:
normal human plasma [1] = assay: APTT clotting assay, normal human plasma; format: biochemical
Protocol: (§1) For the PT assay, thromboplastin-D was reconstituted according to the manufacturer’s directions and warmed to 37 °C. […] After incubation for 4 min at 37 °C, clotting was initiated by adding 100 μL of prewarmed 25 mM CaCl2 and the time to clotting was noted. […] To determine the in vitro effect on the APTT of deficient human plasmas, the APTT assay was repeated, using human plasmas deficient of factor VII (FVII), factor IX (FIX), FXI, or factor XII (FXII). […] The positive control used in APTT and PT assays was rivaroxaban, a clinically used FXa inhibitor. Under the conditions reported, rivaroxaban doubled the APTT and PT at concentrations of 0.123 ± 0.003 µM and 0.193 ± 0.043 µM, respectively.

normal human plasma [2] = conditions: cited from earlier work
normal human plasma [3] = assay: PT clotting assay, normal human plasma; format: biochemical; conditions: normal human plasma (text)
Protocol: as §1

| SMILES | effect on the APTT (normal human plasma [1]; normal human plasma, highest concentration tested of 33.3 mM) | effect on TT (normal human plasma [2]) | concentration to double the PT (normal human plasma [3]) | concentration to double the APTT (normal human plasma [1]; normal human plasma (text)) |
| --- | --- | --- | --- | --- |
| O=S(=O)(O)CCO [isethionic acid] | did not affect the APTT | – | – | – |
| O=C(NC[C@H]1CN(c2ccc(N3CCOCC3=O)cc2)C(=O)O1)c1ccc(Cl)s1 [rivaroxaban] | – | no effect on TT | 0.193 ± 0.043 µM | 0.123 ± 0.003 µM |
